Laboratory results as given in patent US9346809B2 (LEO PHARMA A/S, priority 2009, dated 2016).
Where two headings read alike, the source gives them in different places.

Experiments:
Assay type in all cases: biochemical
[1] = target: T1, TYK2 (aa 871-1187, catalytic domain, GST-tag) (Homo sapiens, UniProt P29597); test: JAK kinase assay (HTRF, phosphorylation of TK substrate-biotin), TYK2; conditions: ATP at Km (13 μM)
T1 construct: JAK1 (aa 850-1154) and TYK2 (aa 871-1187) are expressed with an N-terminally fused GST-tag; GST (N); purchased Carna Biosciences, Inc; host or cells: baculovirus expression system
T1 sequence (P29597 871-1187): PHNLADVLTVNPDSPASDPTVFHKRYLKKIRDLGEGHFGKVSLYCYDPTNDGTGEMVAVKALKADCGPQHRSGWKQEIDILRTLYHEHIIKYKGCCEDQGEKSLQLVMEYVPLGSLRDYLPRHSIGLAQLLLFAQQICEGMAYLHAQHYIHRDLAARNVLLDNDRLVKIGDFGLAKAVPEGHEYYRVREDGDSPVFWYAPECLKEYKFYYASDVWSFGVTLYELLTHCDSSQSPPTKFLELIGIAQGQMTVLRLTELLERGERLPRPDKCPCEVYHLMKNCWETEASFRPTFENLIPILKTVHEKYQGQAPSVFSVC
How it was run: (§1)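 EC50 values come from HTRF signal of phospho-peptide detected by STK Ab Cryptate and Streptavidin-XL665 after overnight incubation. Reactions ran 20-30 min at RT in Hepes pH 7.0, 0.01% BSA, 1 mM DTT, with ATP at Km: 7, 4, 2 and 13 μM for JAK1, JAK2, JAK3, TYK2.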

[2] = target: T2, JAK3 (catalytic domain, His-tag) (Homo sapiens, UniProt P52333); test: JAK kinase assay (HTRF, phosphorylation of TK substrate-biotin), JAK3; conditions: ATP at Km (2 μM)
T2 construct: All four purified enzymes contain only the catalytic domain; His (N); purchased Carna Biosciences, Inc; host or cells: baculovirus expression system
T2 sequence (P52333 822-1111 limits assumed): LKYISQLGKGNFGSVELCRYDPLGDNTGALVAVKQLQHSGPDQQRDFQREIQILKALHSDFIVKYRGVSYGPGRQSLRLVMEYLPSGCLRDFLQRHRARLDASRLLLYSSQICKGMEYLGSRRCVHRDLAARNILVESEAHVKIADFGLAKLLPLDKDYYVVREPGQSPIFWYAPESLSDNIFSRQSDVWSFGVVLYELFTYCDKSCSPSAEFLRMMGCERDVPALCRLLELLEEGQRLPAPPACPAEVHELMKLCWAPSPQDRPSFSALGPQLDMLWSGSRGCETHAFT
How it was run: as §1

[3] = target: T3, JAK1 (aa 850-1154, catalytic domain, GST-tag) (Homo sapiens, UniProt P23458); test: JAK kinase assay (HTRF, phosphorylation of TK substrate-biotin), JAK1; conditions: ATP at Km (7 μM)
T3 construct: JAK1 (aa 850-1154) and TYK2 (aa 871-1187) are expressed with an N-terminally fused GST-tag; GST (N); purchased Carna Biosciences, Inc; host or cells: baculovirus expression system
T3 sequence (P23458 850-1154): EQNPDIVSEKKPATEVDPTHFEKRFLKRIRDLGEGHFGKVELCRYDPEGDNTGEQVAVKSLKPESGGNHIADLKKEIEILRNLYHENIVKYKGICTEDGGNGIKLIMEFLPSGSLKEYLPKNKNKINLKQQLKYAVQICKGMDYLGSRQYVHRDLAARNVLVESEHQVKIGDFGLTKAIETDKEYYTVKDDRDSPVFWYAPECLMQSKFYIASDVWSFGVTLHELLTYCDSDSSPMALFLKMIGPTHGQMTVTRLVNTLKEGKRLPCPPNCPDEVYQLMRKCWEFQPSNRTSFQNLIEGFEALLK
How it was run: as §1

[4] = target: T4, JAK2 (catalytic domain, His-tag) (Homo sapiens, UniProt O60674); test: JAK kinase assay (HTRF, phosphorylation of TK substrate-biotin), JAK2; conditions: ATP at Km (4 μM)
T4 construct: All four purified enzymes contain only the catalytic domain; His (N); purchased Carna Biosciences, Inc; host or cells: baculovirus expression system
T4 sequence (O60674 849-1124 limits assumed): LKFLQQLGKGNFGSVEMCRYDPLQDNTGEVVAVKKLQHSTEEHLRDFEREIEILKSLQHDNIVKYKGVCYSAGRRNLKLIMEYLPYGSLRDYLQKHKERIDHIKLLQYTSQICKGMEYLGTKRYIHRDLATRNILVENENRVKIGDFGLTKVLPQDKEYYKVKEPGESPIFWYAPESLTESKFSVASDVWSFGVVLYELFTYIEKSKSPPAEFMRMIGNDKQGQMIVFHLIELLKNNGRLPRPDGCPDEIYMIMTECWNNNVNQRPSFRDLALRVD
How it was run: as §1

[5] = read-out: TYK2 kinase inhibitory activity (EC50 indicator)
[6] = read-out: JAK3 kinase inhibitory activity (EC50 indicator)
[7] = read-out: JAK1 kinase inhibitory activity (EC50 indicator)
[8] = read-out: JAK2 kinase inhibitory activity (EC50 indicator)
[9] = HTRF assay, read-out: TYK2 kinase inhibitory activity (EC50 indicator)
[10] = HTRF assay, read-out: JAK3 kinase inhibitory activity (EC50 indicator)
[11] = HTRF assay, read-out: JAK1 kinase inhibitory activity (EC50 indicator)
[12] = HTRF assay, read-out: JAK2 kinase inhibitory activity (EC50 indicator)

| EC50 [1, 5] [nM] | EC50 [2, 6] [nM] | EC50 [3, 7] [nM] | EC50 [4, 8] [nM] | EC50 [1, 9] [nM] | EC50 [2, 10] [nM] | EC50 [3, 11] [nM] | EC50 [4, 12] [nM] | also measured | Structure (SMILES) |
| --- | --- | --- | --- | --- | --- | --- | --- | --- | --- |
| > 500 | 100 to 500 | 100 to 500 | 100 to 500 |  |  |  |  |  | O=C(C1CCS(=O)(=O)CC1)N1CCN(c2ncnc3[nH]ccc23)CC12CC2 [Example 13, (1,1-Dioxo-hexahydro-1lambda*6*-thiopyran-4-yl)[7-(7H-pyrrolo[2,3-d]pyrimidin-4-yl)-4,7-diazaspiro[2.5]oct-4-yl]methanone] |
| 100 to 500 | 100 to 500 | 100 to 500 | < 100 |  |  |  |  |  | N#CCN1CCCC(C(=O)N2CCN(c3ncnc4[nH]ccc34)CC23CC3)C1 (centres unmarked) [Example 94, {3-[7-(7H-Pyrrolo[2,3-d]pyrimidin-4-yl)-4,7-diaza-spiro[2.5]octane-4-carbonyl]-piperidin-1-yl}-acetonitrile] |
|  |  |  |  | > 500 | < 100 | < 100 | < 100 |  | CS(=O)(=O)c1ccc(CC(=O)N2CCN(c3ncnc4[nH]ccc34)CC23CC3)cc1 [Example 420, 2-(4-Methanesulfonyl-phenyl)-1-[7-(7H-pyrrolo[2,3-d]pyrimidin-4-yl)-4,7-diaza-spiro[2.5]oct-4-yl]-ethanone] |
|  |  |  |  | > 500 | > 500 | 100 to 500 | 100 to 500 |  | Cc1ccc2sc(C(=O)N3CCN(c4ccnc5[nH]ccc45)CC34CC4)cc2c1 [Example 234, (5-Methyl-benzo[b]thiophen-2-yl)-[7-(1H-pyrrolo[2,3-b]pyridin-4-yl)-4,7-diaza-spiro[2.5]oct-4-yl]-methanone] |
| > 500 | 100 to 500 | < 100 | < 100 |  |  |  |  |  | N#Cc1ccc(C(=O)C(=O)N2C3CCC2CN(c2ncnc4[nH]ccc24)C3)cc1 [Example 128, 4-{2-Oxo-2-[3-(7H-pyrrolo[2,3-d]pyrimidin-4-yl)-3,8-diaza-bicyclo[3.2.1]oct-8-yl]-acetyl}-benzonitrile] |
| > 500 | < 100 | < 100 | < 100 |  |  |  |  |  | NS(=O)(=O)c1ccc(C(=O)N2C3CCC2CN(c2ncnc4[nH]ccc24)C3)o1 [Example 203] |
|  |  |  |  | > 500 | > 500 | > 500 | > 500 |  | Cc1c[nH]c2ncnc(N3CCN(C(=O)CCC#N)C4(CC4)C3)c12 [Example 335, 4-[7-(5-Methyl-7H-pyrrolo[2,3-d]pyrimidin-4-yl)-4,7-diaza-spiro[2.5]oct-4-yl]-4-oxo-butyronitrile] |
|  |  |  |  | 100 to 500 | 100 to 500 | < 100 | < 100 |  | NC(=O)c1ccc(C(=O)N2[C@@H]3CC[C@@H]2CN(c2ncnc4[nH]ccc24)C3)cc1 [Example 358, 4-[3-(7H-Pyrrolo[2,3-d]pyrimidin-4-yl)-3,8-diaza-bicyclo[3.2.1]octane-8-carbonyl]-benzamide] |
|  |  |  |  | 100 to 500 | 100 to 500 | < 100 | < 100 |  | N#Cc1ccc(C(=O)N2CCN(c3ncnc4[nH]ccc34)CC23CC3)cc1F [Example 219, 2-Fluoro-4-[7-(7H-pyrrolo[2,3-d]pyrimidin-4-yl)-4,7-diaza-spiro[2.5]octane-4-carbonyl]-benzonitrile] |
|  |  |  |  | > 500 | 100 to 500 | 100 to 500 | < 100 |  | N#CC1(C(=O)N2[C@@H]3CC[C@@H]2CN(c2ncnc4[nH]ccc24)C3)CCOCC1 [Example 248, 4-[3-(7H-Pyrrolo[2,3-d]pyrimidin-4-yl)-3,8-diaza-bicyclo[3.2.1]octane-8-carbonyl]-tetrahydro-pyran-4-carbonitrile] |
|  |  |  |  | > 500 | 100 to 500 | < 100 | < 100 |  | CC(C)CNS(=O)(=O)c1csc(C(=O)N2CCN(c3ncnc4[nH]ccc34)CC23CC3)c1 [Example 423, 5-[7-(7H-Pyrrolo[2,3-d]pyrimidin-4-yl)-4,7-diaza-spiro[2.5]octane-4-carbonyl]-thiophene-3-sulfonic acid isobutyl-amide] |
|  |  |  |  | > 500 | < 100 | < 100 | < 100 |  | Cc1ccc(S(N)(=O)=O)cc1C(=O)N1CCN(c2ncnc3[nH]ccc23)CC12CC2 [Example 388, 4-Methyl-3-[7-(7H-pyrrolo[2,3-d]pyrimidin-4-yl)-4,7-diaza-spiro[2.5]octane-4-carbonyl]-benzenesulfonamide] |
| > 500 | 100 to 500 | < 100 | < 100 |  |  |  |  |  | NC(=O)c1ccc(C(=O)N2CCN(c3ncnc4[nH]ccc34)CC23CC3)cc1 [Example 49, 4-[7-(7H-Pyrrolo[2,3-d]pyrimidin-4-yl)-4,7-diazaspiro[2.5]octane-4-carbonyl]benzamide] |
| 100 to 500 | 100 to 500 | < 100 | < 100 |  |  |  |  |  | O=C(c1ccccc1)N1[C@@H]2CC[C@H]1CN(c1ncnc3[nH]ccc13)C2 [Example 33, Phenyl-[3-(7H-pyrrolo[2,3-d]pyrimidin-4-yl)-3,8-diazabicyclo[3.2.1]oct-8-yl]methanone] |
|  |  |  |  |  |  |  |  | EC50 ([1]; HTRF assay, read-out: TYK2 kinase inhibitory activity (EC50)): < 100 nM; EC50 ([2]; HTRF assay, read-out: JAK3 kinase inhibitory activity (EC50)): < 100 nM; EC50 ([3]; HTRF assay, read-out: JAK1 kinase inhibitory activity (EC50)): < 100 nM; EC50 ([4]; HTRF assay, read-out: JAK2 kinase inhibitory activity (EC50)): < 100 nM | N#Cc1ccc(CC(=S)N2CCN(c3ncnc4[nH]ccc34)CC23CC3)cc1 [Example 441, 4-{2-[7-(7H-Pyrrolo[2,3-d]pyrimidin-4-yl)-4,7-diaza-spiro[2.5]oct-4-yl]-2-thioxo-ethyl}-benzonitrile] |
|  |  |  |  | > 500 | > 500 | > 500 | > 500 |  | O=C(c1ccccc1)N1C[C@@H]2C[C@H]1CN2c1ncnc2[nH]ccc12 (racemic) [Example 253, Phenyl-[5-(7H-pyrrolo[2,3-d]pyrimidin-4-yl)-2,5-diaza-bicyclo[2.2.1]hept-2-yl]-methanone] |
| > 500 | 100 to 500 | < 100 | 100 to 500 |  |  |  |  |  | N#Cc1ccc(CS(=O)(=O)N2[C@@H]3CC[C@H]2CN(c2ncnc4[nH]ccc24)C3)cc1 [Example 78, 4-[3-(7H-Pyrrolo[2,3-d]pyrimidin-4-yl)-3,8-diaza-bicyclo[3.2.1]octane-8-sulfonylmethyl]-benzonitrile] |
|  |  |  |  | > 500 | > 500 | > 500 | > 500 |  | COc1cnc2[nH]ccc2c1N1CCN(C(=O)c2cc3ccccc3s2)C2(CC2)C1 [Example 284, Benzo[b]thiophen-2-yl-[7-(5-methoxy-1H-pyrrolo[2,3-b]pyridin-4-yl)-4,7-diaza-spiro[2.5]oct-4-yl]-methanone] |
| 100 to 500 | < 100 | < 100 | < 100 |  |  |  |  |  | O=C(c1ccc2[nH]ccc2c1)N1CCN(c2ncnc3[nH]ccc23)CC12CC2 [Example 157, (1H-Indol-5-yl)-[7-(7H-pyrrolo[2,3-d]pyrimidin-4-yl)-4,7-diaza-spiro[2.5]oct-4-yl]-methanone] |
|  |  |  |  | > 500 | 100 to 500 | > 500 | 100 to 500 |  | N#Cc1cccc(C(=O)N2CCN(c3ncnc4[nH]cc(Cl)c34)CC23CC3)c1 [Example 316, 3-[7-(5-Chloro-7H-pyrrolo[2,3-d]pyrimidin-4-yl)-4,7-diaza-spiro[2.5]octane-4-carbonyl]-benzonitrile] |
| > 500 | 100 to 500 | 100 to 500 | < 100 |  |  |  |  |  | O=C(Cc1cccnc1)N1CCN(c2ncnc3[nH]ccc23)CC12CC2 [Example 4, 2-Pyridin-3-yl-1-[7-(7H-pyrrolo[2,3-d]pyrimidin-4-yl)-4,7-diazaspiro[2.5]oct-4-yl]ethanone] |
|  |  |  |  | > 500 | > 500 | > 500 | > 500 |  | Cc1c[nH]c2ncnc(N3CCN(C(=O)Cc4cccc(CC#N)c4)C4(CC4)C3)c12 [Example 327, (3-{2-[7-(5-Methyl-7H-pyrrolo[2,3-d]pyrimidin-4-yl)-4,7-diaza-spiro[2.5]oct-4-yl]-2-oxo-ethyl}-phenyl)-acetonitrile] |
| 100 to 500 | < 100 | < 100 | < 100 |  |  |  |  |  | O=C(C(=O)N1CCN(c2ncnc3[nH]ccc23)CC12CC2)c1cccs1 [Example 205, 1-[7-(7H-Pyrrolo[2,3-d]pyrimidin-4-yl)-4,7-diaza-spiro[2.5]oct-4-yl]-2-thiophen-2-yl-ethane-1,2-d lone] |
